From ChEMBL document CHEMBL4421717, “Antagonists and agonists of bitter taste receptors and uses thereof” (2012)
Calls of active or inactive are those of the source. The calls are words filed in the database; no cut-off is given here.

Legend:
Assay type in all cases: functional, cell-based
[1] = biological target: Taste receptor type 2 member 31 (Homo sapiens) (UniProt P59538); experiment: Antagonist activity at recombinant human N-terminal rat ST3 receptor-fused TAS2R44 expressed in HEK293T cells co-expressing Galpha16gust44 assessed as inhibition of aristolochic acids-induced intracellular calcium level at 100 uM by FLIPR assay
Taste receptor type 2 member 31 (Homo sapiens), sequence (P59538 whole entry, the tested form may be a part): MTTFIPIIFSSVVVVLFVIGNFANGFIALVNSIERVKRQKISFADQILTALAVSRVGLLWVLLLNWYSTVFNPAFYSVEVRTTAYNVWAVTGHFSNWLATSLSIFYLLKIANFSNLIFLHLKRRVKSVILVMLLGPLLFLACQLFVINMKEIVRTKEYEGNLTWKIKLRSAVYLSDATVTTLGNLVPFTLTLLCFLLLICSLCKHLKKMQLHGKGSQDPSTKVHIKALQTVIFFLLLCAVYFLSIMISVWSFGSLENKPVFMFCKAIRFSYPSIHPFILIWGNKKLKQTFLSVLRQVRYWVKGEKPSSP

[2] = biological target: T1, Taste receptor type 2 member 46 (Homo sapiens, UniProt P59540); experiment: Antagonist activity at recombinant human N-terminal rat ST3 receptor-fused TAS2R46 expressed in HEK293T cells co-expressing Galpha16gust44 assessed as inhibition of 100 uM absinthin-induced intracellular calcium level 100 uM by FLIPR assay
T1 sequence (P59540 whole entry): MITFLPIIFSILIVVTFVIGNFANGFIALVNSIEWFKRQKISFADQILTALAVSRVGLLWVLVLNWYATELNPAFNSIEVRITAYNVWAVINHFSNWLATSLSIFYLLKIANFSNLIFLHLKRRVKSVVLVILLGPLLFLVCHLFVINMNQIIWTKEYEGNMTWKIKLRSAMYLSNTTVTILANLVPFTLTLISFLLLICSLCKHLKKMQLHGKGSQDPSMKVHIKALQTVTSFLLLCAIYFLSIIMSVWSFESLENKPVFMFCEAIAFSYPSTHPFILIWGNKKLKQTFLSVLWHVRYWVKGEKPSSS

[3] = biological target: Taste receptor type 2 member 7 (Homo sapiens) (UniProt Q9NYW3); experiment: Agonist activity at recombinant human N-terminal rat ST3 receptor-fused TAS2R7 expressed in HEK293T cells co-expressing Galpha16gust44 assessed as effect on intracellular calcium level at 100 uM by FLIPR assay
Taste receptor type 2 member 7 (Homo sapiens), sequence (Q9NYW3 whole entry, the tested form may be a part): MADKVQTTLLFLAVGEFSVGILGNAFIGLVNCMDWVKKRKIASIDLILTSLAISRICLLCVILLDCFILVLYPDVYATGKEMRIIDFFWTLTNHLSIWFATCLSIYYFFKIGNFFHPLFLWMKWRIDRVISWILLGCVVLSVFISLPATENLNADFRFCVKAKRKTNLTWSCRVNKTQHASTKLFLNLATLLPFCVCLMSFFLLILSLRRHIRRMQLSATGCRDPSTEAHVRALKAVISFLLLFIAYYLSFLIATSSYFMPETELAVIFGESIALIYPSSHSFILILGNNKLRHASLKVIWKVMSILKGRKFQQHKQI

[4] = biological target: T2, Taste receptor type 2 member 16 (Homo sapiens) (UniProt Q9NYV7); experiment: Agonist activity at recombinant human N-terminal rat ST3 receptor-fused TAS2R16 expressed in HEK293T cells co-expressing Galpha16gust44 assessed as effect on intracellular calcium level at 100 uM by FLIPR assay
T2 sequence (whole entry): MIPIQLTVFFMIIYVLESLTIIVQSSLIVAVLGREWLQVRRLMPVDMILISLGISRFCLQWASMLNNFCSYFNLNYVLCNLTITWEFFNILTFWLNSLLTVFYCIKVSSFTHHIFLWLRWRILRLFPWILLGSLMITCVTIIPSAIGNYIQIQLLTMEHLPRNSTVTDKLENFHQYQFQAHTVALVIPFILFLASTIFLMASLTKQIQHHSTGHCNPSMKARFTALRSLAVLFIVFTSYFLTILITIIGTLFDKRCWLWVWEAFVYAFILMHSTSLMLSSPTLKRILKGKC

[5] = biological target: T3, Taste receptor type 2 member 39 (Homo sapiens) (UniProt P59534); experiment: Agonist activity at recombinant human N-terminal rat ST3 receptor-fused TAS2R39 expressed in HEK293T cells co-expressing Galpha16gust44 assessed as effect on intracellular calcium level at 100 uM by FLIPR assay
T3 sequence (whole entry): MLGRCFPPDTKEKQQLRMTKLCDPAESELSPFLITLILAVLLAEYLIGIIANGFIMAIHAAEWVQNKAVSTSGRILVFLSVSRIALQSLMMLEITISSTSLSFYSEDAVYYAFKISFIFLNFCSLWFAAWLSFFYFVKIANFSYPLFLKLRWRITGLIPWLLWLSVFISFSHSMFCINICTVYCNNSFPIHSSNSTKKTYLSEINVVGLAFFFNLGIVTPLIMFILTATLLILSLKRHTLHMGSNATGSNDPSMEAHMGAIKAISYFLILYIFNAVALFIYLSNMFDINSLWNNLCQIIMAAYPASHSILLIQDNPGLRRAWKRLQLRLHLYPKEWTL

[6] = biological target: Taste receptor type 2 member 60 (Homo sapiens) (UniProt P59551); experiment: Agonist activity at recombinant human N-terminal rat ST3 receptor-fused TAS2R60 expressed in HEK293T cells co-expressing Galpha16gust44 assessed as effect on intracellular calcium level at 100 uM by FLIPR assay
Taste receptor type 2 member 60 (Homo sapiens), sequence (P59551 whole entry, the tested form may be a part): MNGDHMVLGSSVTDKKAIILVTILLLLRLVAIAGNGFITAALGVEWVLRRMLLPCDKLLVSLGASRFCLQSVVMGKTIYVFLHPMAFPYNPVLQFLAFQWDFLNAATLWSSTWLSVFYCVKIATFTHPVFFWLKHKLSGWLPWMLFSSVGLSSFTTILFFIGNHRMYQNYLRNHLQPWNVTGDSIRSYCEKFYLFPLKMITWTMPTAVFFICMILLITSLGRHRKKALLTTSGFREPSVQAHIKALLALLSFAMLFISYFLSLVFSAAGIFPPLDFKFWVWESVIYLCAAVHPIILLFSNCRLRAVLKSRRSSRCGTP

[7] = biological target: T4, Taste receptor type 2 member 46 (Homo sapiens) (UniProt P59540); experiment: Competitive antagonist activity at recombinant human N-terminal rat ST3 receptor-fused TAS2R46 expressed in HEK293T cells co-expressing Galpha16gust44 assessed as inhibition strychnine-induced intracellular calcium level by FLIPR assay
T4 sequence (whole entry): T1 sequence (P59540 whole entry)

[8] = biological target: Taste receptor type 2 member 42 (Homo sapiens) (UniProt Q7RTR8); experiment: Agonist activity at recombinant human N-terminal rat ST3 receptor-fused TAS2R42 expressed in HEK293T cells co-expressing Galpha16gust44 assessed as effect on intracellular calcium level at 100 uM by FLIPR assay
Taste receptor type 2 member 42 (Homo sapiens), sequence (Q7RTR8 whole entry, the tested form may be a part): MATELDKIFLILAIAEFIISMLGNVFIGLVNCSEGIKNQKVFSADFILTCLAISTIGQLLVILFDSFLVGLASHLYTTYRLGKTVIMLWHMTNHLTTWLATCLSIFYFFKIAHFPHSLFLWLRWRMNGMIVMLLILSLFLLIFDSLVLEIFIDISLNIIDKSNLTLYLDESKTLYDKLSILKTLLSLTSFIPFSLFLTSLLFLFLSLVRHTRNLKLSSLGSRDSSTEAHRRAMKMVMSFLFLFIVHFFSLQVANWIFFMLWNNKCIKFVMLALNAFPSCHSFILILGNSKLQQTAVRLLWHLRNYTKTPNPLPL

[9] = biological target: T5, Taste receptor type 2 member 43 (Homo sapiens) (UniProt P59537); experiment: Agonist activity at recombinant human N-terminal rat ST3 receptor-fused TAS2R43 expressed in HEK293T cells co-expressing Galpha16gust44 assessed as effect on intracellular calcium level at 100 uM by FLIPR assay
T5 sequence (whole entry): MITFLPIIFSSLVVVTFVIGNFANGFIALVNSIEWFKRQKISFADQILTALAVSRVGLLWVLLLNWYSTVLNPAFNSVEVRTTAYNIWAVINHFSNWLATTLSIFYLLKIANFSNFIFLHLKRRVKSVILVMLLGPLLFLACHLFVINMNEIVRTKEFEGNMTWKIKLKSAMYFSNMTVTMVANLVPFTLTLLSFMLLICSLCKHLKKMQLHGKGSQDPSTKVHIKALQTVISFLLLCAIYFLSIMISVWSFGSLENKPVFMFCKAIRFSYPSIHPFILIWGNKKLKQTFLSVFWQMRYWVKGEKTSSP

[10] = biological target: Taste receptor type 2 member 7 (Homo sapiens) (UniProt Q9NYW3); experiment: Activity at recombinant human N-terminal rat ST3 receptor-fused TAS2R7 expressed in HEK293T cells co-expressing Galpha16gust44 assessed as increase in quinine sulfate-induced intracellular calcium level at 100 uM by FLIPR assay
[11] = biological target: T6, Taste receptor type 2 member 20 (Homo sapiens) (UniProt P59543); experiment: Agonist activity at recombinant human N-terminal rat ST3 receptor-fused TAS2R49 expressed in HEK293T cells co-expressing Galpha16gust44 assessed as effect on intracellular calcium level at 100 uM by FLIPR assay
T6 sequence (whole entry): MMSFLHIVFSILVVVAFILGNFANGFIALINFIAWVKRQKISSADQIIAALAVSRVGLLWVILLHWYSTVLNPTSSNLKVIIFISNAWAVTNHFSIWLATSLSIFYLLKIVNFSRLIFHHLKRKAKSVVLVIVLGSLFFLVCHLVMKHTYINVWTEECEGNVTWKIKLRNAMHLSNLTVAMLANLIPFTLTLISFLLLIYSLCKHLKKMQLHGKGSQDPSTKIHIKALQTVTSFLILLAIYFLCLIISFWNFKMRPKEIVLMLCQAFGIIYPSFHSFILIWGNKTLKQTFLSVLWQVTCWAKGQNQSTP

SMILES	inhibition [1]	IC50 [2] [µM]	Activity [3]	Activity [4]	Activity [5]	Activity [6]	inhibition [7]	Activity [8]	Activity [9]	Activity [10]	Activity [11]
C/C1=C\C[C@H](O)[C@@H](C)C[C@H]2OC(=O)[C@@H](C)C2CC1 (stereo partly specified)	Active	57.8									
C/C1=C\C[C@H](O)/C(C)=C/[C@H]2OC(=O)[C@@H](C)C2CC1 (stereo partly specified)			Active	inactive	inactive	inactive	Active	inactive	inactive	Active	inactive
